Source: US20230278972A1, “SUBSTITUTED HALOALKYL SULFONANILIDE HERBICIDES” (FMC Corporation, priority 2020, published 2023)

Columns and labels:
Assay type in all cases: in vivo
[1] = test system: barnyardgrass (Echinochloa crus-galli); test: Test A preemergence, barnyardgrass; conditions: Preemergence; for Plant response rating, Barnyardgrass: 31 g ai/ha, visual injury, 0 to 100 scale (0 no effect, 100 complete control), approx. 10 days; for Barnyardgrass plant response rating: 125 g ai/ha, visual injury on 0 to 100 scale (0 no effect, 100 complete control), approximately 10 days
In short: (§1)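 Pots: loam soil/sand blend. Pre: directed soil spray at planting. Post: plants 2–10 cm, 1–2 leaf stage. Formulation: non-phytotoxic solvent + surfactant.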

kochia (Bassia scoparia) [2] = test: Test A preemergence, kochia; conditions: Preemergence; for Plant response rating, Kochia: 31 g ai/ha, visual injury, 0 to 100 scale (0 no effect, 100 complete control), approx. 10 days; for Kochia plant response rating: 125 g ai/ha, visual injury on 0 to 100 scale (0 no effect, 100 complete control), approximately 10 days
In short: as §1

[3] = test system: ragweed (common ragweed, Ambrosia artemisiifolia); test: Test A preemergence, ragweed; conditions: Preemergence; for Plant response rating, Ragweed: 31 g ai/ha, visual injury, 0 to 100 scale (0 no effect, 100 complete control), approx. 10 days; for Ragweed plant response rating: 125 g ai/ha, visual injury on 0 to 100 scale (0 no effect, 100 complete control), approximately 10 days
In short: as §1

[4] = test system: Ryegrass, Italian (Italian ryegrass, Lolium multiflorum); test: Test A preemergence, Ryegrass, Italian; conditions: Preemergence; for Plant response rating, Ryegrass, Italian: 31 g ai/ha, visual injury, 0 to 100 scale (0 no effect, 100 complete control), approx. 10 days; for Ryegrass, Italian plant response rating: 125 g ai/ha, visual injury on 0 to 100 scale (0 no effect, 100 complete control), approximately 10 days
In short: as §1

[5] = test system: Foxtail, Giant (giant foxtail, Setaria faberi); test: Test A preemergence, Foxtail, Giant; conditions: Preemergence; for Plant response rating, Foxtail, Giant: 31 g ai/ha, visual injury, 0 to 100 scale (0 no effect, 100 complete control), approx. 10 days; for Foxtail, Giant plant response rating: 125 g ai/ha, visual injury on 0 to 100 scale (0 no effect, 100 complete control), approximately 10 days
In short: as §1

[6] = test system: pigweed (Amaranthus retroflexus); test: Test A preemergence, pigweed; conditions: for Plant response rating, Pigweed: 31 g ai/ha, visual injury, 0 to 100 scale (0 no effect, 100 complete control), approx. 10 days; for Pigweed plant response rating: 125 g ai/ha, visual injury on 0 to 100 scale (0 no effect, 100 complete control), approximately 10 days
In short: (§2)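 Compounds in non-phytotoxic solvent with surfactant. Soil: loam/sand. Preemergence via directed soil spray after seeding; postemergence on seedlings 2–10 cm, one- to two-leaf.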

[7] = test system: barnyardgrass (Echinochloa crus-galli); test: Test A postemergence, barnyardgrass; conditions: Postemergence, 0 to 100 scale (0 no effect, 100 complete control)
In short: as §2

kochia (Bassia scoparia) [8] = test: Test A postemergence, kochia; conditions: Postemergence, 0 to 100 scale (0 no effect, 100 complete control)
In short: as §1

[9] = test system: ragweed (common ragweed, Ambrosia artemisiifolia); test: Test A postemergence, ragweed; conditions: Postemergence, 0 to 100 scale (0 no effect, 100 complete control)
In short: as §1

[10] = test system: Ryegrass, Italian (Italian ryegrass, Lolium multiflorum); test: Test A postemergence, Ryegrass, Italian; conditions: Postemergence, 0 to 100 scale (0 no effect, 100 complete control)
In short: as §1

[11] = test system: Foxtail, Giant (giant foxtail, Setaria faberi); test: Test A postemergence, Foxtail, Giant; conditions: Postemergence, 0 to 100 scale (0 no effect, 100 complete control)
In short: as §1

[12] = test system: pigweed (Amaranthus retroflexus); test: Test A postemergence, pigweed; conditions: Postemergence, 0 to 100 scale (0 no effect, 100 complete control)
In short: as §1

[13] = test system: wheat (Triticum aestivum); test: Test A postemergence, wheat; conditions: Postemergence, 0 to 100 scale (0 no effect, 100 complete control)
In short: as §2

corn (Zea mays) = test: Test A postemergence, corn; conditions: Postemergence, 0 to 100 scale (0 no effect, 100 complete control)
In short: as §1

[14] = test system: blackgrass (Alopecurus myosuroides); test: Test A postemergence, blackgrass; conditions: Postemergence, 0 to 100 scale (0 no effect, 100 complete control)
In short: as §1

[15] = test system: galium (catchweed bedstraw, Galium aparine); test: Test A postemergence, galium; conditions: Postemergence, 0 to 100 scale (0 no effect, 100 complete control)
In short: as §2

[16] = 125 g ai/ha, visual injury approx. 10 days

Structure (SMILES): COC1CCCN(C(=O)c2cc(N(C(=O)C(C)C)S(=O)(=O)C(F)(F)F)c(C)cc2C)C1 (stereo not shown) [Compound 91]
- Plant response rating, Barnyardgrass [1]: 0
- Barnyardgrass plant response rating [1]: 90
- Plant response rating, Kochia (kochia (Bassia scoparia) [2]): 0
- Kochia plant response rating (kochia (Bassia scoparia) [2]): 60
- Plant response rating, Ragweed [3]: 0
- Ragweed plant response rating [3]: 20
- Plant response rating, Ryegrass, Italian [4]: 30
- Ryegrass, Italian plant response rating [4]: 50
- Plant response rating, Foxtail, Giant [5]: 20
- Foxtail, Giant plant response rating [5]: 100
- Plant response rating, Pigweed [6]: 60
- Pigweed plant response rating [6]: 100
- Plant response rating, Barnyardgrass ([7]; 31 g ai/ha): 0
- Plant response rating, Barnyardgrass [7, 16]: 0
- Plant response rating, Kochia (kochia (Bassia scoparia) [8]; 31 g ai/ha): 10
- Plant response rating, Kochia (kochia (Bassia scoparia) [8]; [16]): 10
- Plant response rating, Ragweed ([9]; 31 g ai/ha): 0
- Plant response rating, Ragweed [9, 16]: 40
- Plant response rating, Ryegrass, Italian ([10]; 31 g ai/ha): 0
- Plant response rating, Ryegrass, Italian [10, 16]: 10
- Plant response rating, Foxtail, Giant ([11]; 31 g ai/ha): 0
- Plant response rating, Foxtail, Giant [11, 16]: 10
- Plant response rating, Pigweed ([12]; 31 g ai/ha): 0
- Plant response rating, Pigweed [12, 16]: 40
- Plant response rating, Wheat ([13]; 31 g ai/ha): 10
- Plant response rating, Wheat [13, 16]: 60
- Plant response rating, Corn (corn (Zea mays); 31 g ai/ha): 0
- Plant response rating, Corn (corn (Zea mays); [16]): 0
- Plant response rating, Blackgrass ([14]; 31 g ai/ha): 0
- Plant response rating, Blackgrass [14, 16]: 0
- Plant response rating, Galium ([15]; 31 g ai/ha): 70
- Plant response rating, Galium [15, 16]: 70

Structure (SMILES): COC1CCCN(C(=O)c2cc(N(C(C)=O)S(=O)(=O)C(F)(F)F)c(C)cc2C)C1 (stereo not shown) [Compound 93]
- Plant response rating, Barnyardgrass [1]: 0
- Barnyardgrass plant response rating [1]: 80
- Plant response rating, Kochia (kochia (Bassia scoparia) [2]): 0
- Kochia plant response rating (kochia (Bassia scoparia) [2]): 50
- Plant response rating, Ragweed [3]: 0
- Ragweed plant response rating [3]: 70
- Plant response rating, Ryegrass, Italian [4]: 0
- Ryegrass, Italian plant response rating [4]: 80
- Plant response rating, Foxtail, Giant [5]: 60
- Foxtail, Giant plant response rating [5]: 80
- Plant response rating, Pigweed [6]: 50
- Pigweed plant response rating [6]: 100
- Plant response rating, Barnyardgrass ([7]; 31 g ai/ha): 0
- Plant response rating, Barnyardgrass [7, 16]: 60
- Plant response rating, Kochia (kochia (Bassia scoparia) [8]; 31 g ai/ha): 10
- Plant response rating, Kochia (kochia (Bassia scoparia) [8]; [16]): 30
- Plant response rating, Ragweed ([9]; 31 g ai/ha): 30
- Plant response rating, Ragweed [9, 16]: 30
- Plant response rating, Ryegrass, Italian ([10]; 31 g ai/ha): 0
- Plant response rating, Ryegrass, Italian [10, 16]: 20
- Plant response rating, Foxtail, Giant ([11]; 31 g ai/ha): 0
- Plant response rating, Foxtail, Giant [11, 16]: 10
- Plant response rating, Pigweed ([12]; 31 g ai/ha): 30
- Plant response rating, Pigweed [12, 16]: 50
- Plant response rating, Wheat ([13]; 31 g ai/ha): 30
- Plant response rating, Wheat [13, 16]: 60
- Plant response rating, Corn (corn (Zea mays); 31 g ai/ha): 0
- Plant response rating, Corn (corn (Zea mays); [16]): 20
- Plant response rating, Blackgrass ([14]; 31 g ai/ha): 20
- Plant response rating, Blackgrass [14, 16]: 70
- Plant response rating, Galium ([15]; 31 g ai/ha): 80
- Plant response rating, Galium [15, 16]: 80
